ChEMBL document CHEMBL4699523, “Predicting the Human Hepatic Clearance of Acidic and Zwitterionic Drugs” (J Med Chem, 2020)

What was measured:
physchem [1] = assay: physchem
in vitro [2] = conditions: human, plasma
Description: Fraction unbound in human plasma

in vitro [3] = conditions: cynomolgus monkey, plasma
Description: Fraction unbound in cynomolgus monkey plasma

in vitro [4] = conditions: rat, plasma
Description: Fraction unbound in rat plasma

physchem [5] = assay: physchem; remark: listed apart in the source
[6] = cynomolgus monkey, in vivo, iv, 1 mg/kg
in vitro [7] = conditions: dog, MDCK, pH 7.4
Description: Apparent permeability in dog MDCKII-LE cells at pH 7.4

clinical = conditions: human, blood and plasma, iv
Description: Ratio of drug level in human blood to plasma administered through iv dosing by LC-MS/MS analysis

in vivo [8] = conditions: Wistar Hannover, rat, blood and plasma, iv
Description: Ratio of drug level in Wistar Hannover rat blood to plasma administered through iv dosing by LC-MS/MS analysis

[9] = human, in vivo, iv
Description: Hepatic clearance in human administered through iv dosing

in vivo [10] = conditions: cynomolgus monkey, blood and plasma, iv
Description: Ratio of drug level in cynomolgus monkey blood to plasma administered through iv dosing by LC-MS/MS analysis

physchem [11] = conditions: buffer, pH 7.4
[12] = rat, in vivo, iv, 1 mg/kg
in vitro [13] = conditions: human, cryopreserved hepatocytes
[14] = Hepatic clearance in cynomolgus monkey administered through oral dosing; format: ADME, Macaca fascicularis; conditions: in vivo
[15] = Ratio of drug level in cynomolgus monkey blood to plasma administered through oral dosing by LC-MS/MS analysis; format: ADME, cell-free, Macaca fascicularis; conditions: blood and plasma
[16] = Ratio of drug level in human blood to plasma administered through oral dosing by LC-MS/MS analysis; format: ADME, cell-free; conditions: blood and plasma
[17] = Hepatic clearance in human administered through oral dosing; format: ADME

## CCCc1nc2c(C)cc(-c3nc4ccccc4n3C)cc2n1Cc1ccc(-c2ccccc2C(=O)O)cc1
Physchem [1]
  pKa at 0.3 h: 4.2
In vitro [2]
  fraction unbound: 0.006
In vitro [3]
  fraction unbound: 0.0125
In vitro [4]
  fraction unbound: 0.006
Physchem [5]
  pKa at 0.3 h: 3.2
[6]
  CLH: 9.2 mL/min/kg
In vitro [7]
  Papp: 12 ×10⁻⁶ cm/s
clinical
  blood plasma ratio: 0.61
In vivo [8]
  blood plasma ratio: 0.65
[9]
  CLH: 10.2 mL/min/kg
In vivo [10]
  blood plasma ratio: 0.61
Physchem [11]
  logD: 2.4
[12]
  CLH: 4.3 mL/min/kg
In vitro [13]
  CLint scaled at 2 h, 1 µM: 39 mL/min/kg

## O=C(O)[C@@H]1CCC[C@H]1C(=O)c1ccc(-c2ccc(Nc3nc4ccc(F)cc4s3)c(F)c2)cc1
Physchem [1]
  pKa at 0.3 h: 4.7
[14]
  CLH: 2 mL/min/kg
In vitro [2]
  fraction unbound: 0.00086
In vitro [3]
  fraction unbound: 0.0014
[15]
  blood plasma ratio: 0.617
Physchem [5]
  pKa at 0.3 h: 2.4
In vitro [7]
  Papp: 2.3 ×10⁻⁶ cm/s
[16]
  blood plasma ratio: 0.653
Physchem [11]
  logD: > 3.5
[17]
  CLH: 0.59 mL/min/kg
In vitro [13]
  CLint scaled at 2 h, 1 µM: 201 mL/min/kg

## Cc1cc(O[C@H](CCC(F)(F)F)c2ccc(C(=O)NCCC(=O)O)cc2)cc(C)c1-c1ccc(C(C)(C)C)cc1
Physchem [1]
  pKa at 0.3 h: 4.4
[14]
  CLH: 0.29 mL/min/kg
In vitro [2]
  fraction unbound: 3.6e-05
In vitro [3]
  fraction unbound: 5.6e-05
[15]
  blood plasma ratio: 0.823
[16]
  blood plasma ratio: 0.605
Physchem [11]
  logD: > 3.5
[17]
  CLH: 0.078 mL/min/kg
In vitro [13]
  CLint scaled at 2 h, 1 µM: 1680 mL/min/kg

## Cc1ccc(S(=O)(=O)NCCc2ccc(Oc3ccc(F)c(F)c3)cc2)cc1C(=O)O
Physchem [1]
  pKa at 0.3 h: 3.4
[14]
  CLH: 6.1 mL/min/kg
In vitro [2]
  fraction unbound: 0.00229
In vitro [3]
  fraction unbound: 0.00107
[15]
  blood plasma ratio: 0.562
In vitro [7]
  Papp: 7.3 ×10⁻⁶ cm/s
[16]
  blood plasma ratio: 0.55
Physchem [11]
  logD: 1.6
[17]
  CLH: 0.72 mL/min/kg
In vitro [13]
  CLint scaled at 2 h, 1 µM: 19 mL/min/kg

## COc1ccccc1[C@H](Cn1c(=O)n(C(C)(C)C(=O)O)c(=O)c2c(C)c(-c3ncco3)sc21)OC1CCOCC1 [FIRSOCOSTAT]
[14]
  CLH: 11.3 mL/min/kg
In vitro [2]
  fraction unbound: 0.0172
In vitro [3]
  fraction unbound: 0.0284
[15]
  blood plasma ratio: 0.623
In vitro [7]
  Papp: 5.5 ×10⁻⁶ cm/s
[16]
  blood plasma ratio: 0.655
Physchem [11]
  logD: 1.1
[17]
  CLH: 10 mL/min/kg
In vitro [13]
  CLint scaled at 2 h, 1 µM: 23 mL/min/kg

## Cc1ccc(NC(=O)C2(c3ccc4c(c3)OC(F)(F)O4)CC2)nc1-c1cccc(C(=O)O)c1 [LUMACAFTOR]
Physchem [1]
  pKa at 0.3 h: 4.2
[14]
  CLH: 0.72 mL/min/kg
In vitro [2]
  fraction unbound: 0.0032
In vitro [3]
  fraction unbound: 0.0045
[15]
  blood plasma ratio: 0.575
In vitro [7]
  Papp: 25 ×10⁻⁶ cm/s
[16]
  blood plasma ratio: 0.575
Physchem [11]
  logD: 2.6
[17]
  CLH: 0.26 mL/min/kg
In vitro [13]
  CLint scaled at 2 h, 1 µM: 27 mL/min/kg

## CCC[C@H](c1ccc(C(=O)NCCC(=O)O)cc1)[C@H](c1ccc(Cl)cc1)c1c[nH]c2c(F)cc(C)cc12 [MK-3577]
Physchem [1]
  pKa at 0.3 h: 4.1
[14]
  CLH: 9.3 mL/min/kg
In vitro [2]
  fraction unbound: 0.00025
In vitro [3]
  fraction unbound: 0.00023
[15]
  blood plasma ratio: 0.95
[16]
  blood plasma ratio: 0.55
Physchem [11]
  logD: > 3.5
[17]
  CLH: 4.9 mL/min/kg
In vitro [13]
  CLint scaled at 2 h, 1 µM: 571 mL/min/kg

## O=C(O)C[C@H](O)C[C@H](O)/C=C/c1c(C2CC2)nc2ccccc2c1-c1ccc(F)cc1 [PITAVASTATIN]
Physchem [1]
  pKa at 0.3 h: 4.7
In vitro [2]
  fraction unbound: 0.008
In vitro [3]
  fraction unbound: 0.0263
In vitro [4]
  fraction unbound: 0.008
Physchem [5]
  pKa at 0.3 h: 5.1
[6]
  CLH: 17.8 mL/min/kg
In vitro [7]
  Papp: 8.5 ×10⁻⁶ cm/s
clinical
  blood plasma ratio: 0.65
In vivo [8]
  blood plasma ratio: 0.65
[9]
  CLH: 5.6 mL/min/kg
In vivo [10]
  blood plasma ratio: 0.65
Physchem [11]
  logD: 1.2
[12]
  CLH: 7.1 mL/min/kg
In vitro [13]
  CLint scaled at 2 h, 1 µM: 31 mL/min/kg

## Cn1cc(C(=O)O)c2ccc(N3CCC(OCc4c(-c5c(Cl)cccc5Cl)noc4C4CC4)CC3)cc21 [TERN-101]
[14]
  CLH: 6 mL/min/kg
In vitro [2]
  fraction unbound: 0.0122
In vitro [3]
  fraction unbound: 0.0049
[15]
  blood plasma ratio: 1.1
In vitro [7]
  Papp: 17 ×10⁻⁶ cm/s
[16]
  blood plasma ratio: 0.612
Physchem [11]
  logD: 2.7
[17]
  CLH: 8.8 mL/min/kg
In vitro [13]
  CLint scaled at 2 h, 1 µM: 111 mL/min/kg
